The source of these data is patent US12351819B2, “Method for removing undifferentiated pluripotent stem cells” (priority 2017, dated 2025).

One data set has as its system H9 hESC-MSCs. Particulars: 2.5 μM, 24 hours. The procedure: (§1) The supernatants of cells treated with digoxin […], lanatoside C 2.5 μm, or DMSO solvent control for 24 hours were harvested. The released LDH was measured using CytoTox 96 […] assay according to the manufacture's instruction (Promega, Southampton, UK). The supernatants and reagents were incubated at room temperature for 20 minutes and then the reaction was stopped by Stop Solution. The absorbance at 490 nm was measured using a plate-reading spectrophotometer (Benchmark Plus Microplate Spectrophotometer System, BIO-RAD, CA, USA).
According to the report from Dr. Xu and colleagues^30, hESCs were cultured with 10 ng/ml BMP4 and 1 μM of A8301 for 5 days. Next, the cells were passaged on the gelatin-coated plate and the culture medium was switched to MSC culture medium [Minimum Essential Medium Eagle Alpha Modification (αMEM) medium supplemented with 20% fetal bovine serum (FBS), 1-glutamine (Gluta-MAX), 1× nonessential amino acids]. Cells were expanded within passage 5, and CD73^+ (11-0793, ThermoFisher Scientific) and CD105^+ (12-1057, ThermoFisher Scientific) double positive cells were sorted.
hESC-derived MSCs were trypsinized and washed with PBS. Then cells were incubated with anti-human CD73 FITC (ThermoFisher Scientific) and anti-human CD105 PE (ThermoFisher Scientific) for 15 minutes at 4° C. Cells were washed cells with PBS for three times. CD73^+/CD105^+ cells were sorted with the cell sorter (BD FACSAria II, BD Biosciences). Sorted cells were maintained in MSC culture medium.

In the next data set the test system is hESCs. Put plainly: Alamar blue assay, hESCs. The format is cell-based, human. The note with it: FIG. 12. The procedure: Alamar blue assay measured the relative cell number. In the cells, we added 1/10 of Alamar Blue Viability Assay reagent to the total volume of the mixture (Biotium; Fremont, CA, USA). The cells were incubated overnight at 37° C. The resulted were quantified by the measurement of optical density (OD) absorbance values at 570 nm and 600 nm, and the relative cell number was calculated.
A general note: Resazurin is reduced to fluorescent resorufin, in cell work by metabolically active cells.

Data set [1] deals with hESC-hepatocyte endoderm cells. Description: LDH cytotoxicity assay in hESC-derived hepatocyte endoderm. The format is cell-based, human. Particulars: Table 1. The procedure: This protocol followed a method previously published in Nature Protocols^36. The hESCs were detached by 0.5 mM EDTA (Life Technologies, Camarillo, C, USA), seeded on VTN-N coated culture plates (Corning) and maintained for 48 hours in mTeSR 1 medium. Then, the medium was refreshed daily for all following steps. On days 1-2, the medium was replaced with fresh CDM-PVA (consisting of 0.5 g of PVA (Sigma) dissolved in 250 ml of IMDM/F-12, GlutaMAX (Invitrogen), 250 ml of IMDM (Invitrogen), 5 ml of chemically defined lipid concentrate (Invitrogen), 20 of thioglycerol 97% (Sigma), 350 of insulin (10 mg/ml; Roche), 250 of transferrin (30 mg/ml; Roche) plus Activin A (100 ng/ml; R&D), bFGF (80 ng/ml; R&D), BMP4 (10 ng/ml; R&D), and […] of LY-294002 (Promega). On day 3, the cells were differentiated in RPMI Medium supplemented with Activin A (100 ng/ml) and bFGF (80 ng/ml). On days 4-6, the cells were expanded in RPMI medium supplemented with Activin A (50 ng/ml). On day 7, the cells were passaged and re-plated 105,000 cells/cm^2 cells in VTN-N coated culture plates in RPMI containing Activin A (50 ng/ml) and Y-27632 2HCl (10 μM Selleck-chem, Houston, TX, USA and Munich, Germany). Then, the cells were maintained in RPMI+Activin A (50 ng/ml) on days 8-11. The cells were differentiated into the hepatocyte endoderm and analyzed following the drug treatments. The expression of alpha-fetoprotein (A0008, Dako, Santa Clara, CA, USA) was analyzed in the hepatocyte endoderm via immunofluorescence staining.

In a further data set the test system is hESCs (H9). Particulars: for cytotoxic effect (LDH release) in hESCs: 2.5 μM, 24 hours, vs DMSO; for LDH assay positive, hESCs: Table 1. Here is the method:
The hESC line H9 was purchased from WiCells (Madison, WI, USA)^27. Another hESC line, HUES6, was kindly provided by Dr. Douglas A. Melton (Harvard University, Boston, MA, USA)^28. Cells were maintained on the feeder cells and cultured in Dulbecco's modified Eagle's medium (DMEM)/F12 supplemented with 20% knockout serum replacement, 2 mM L-glutamine, 1% nonessential amino acids, 4 ng/mL human bFGF, and 0.1 mM 2-mercaptoethanol. For the feeder cells culture, C57BL/6 mouse embryonic fibroblasts (MEF) were cultured in the DMEM with 10% FBS and treated cells with 0.01 mg/ml mitomycin C 2-6 hours for inactivation. For the feeder-free culture, hESCs were seeded on the Matrigel Matrix (BD Biosciences, San Jose, CA, USA) coated culture plates and maintained by conditioned medium of MEF (C57BL/6). hBMMSCs were cultured in mesenPRO RS™ kit (Life Technologies, Camarillo, CA, USA). All cells were cultured in a humidified atmosphere containing 5% CO2 at 37° C.
as §1
(Release of lactate dehydrogenase indicates damage to the cell membrane.)

For the next data set, the system named is hiPSCs. Particulars: Table 1; hiPSCs. The procedure:
as §1
hiPSC-derived endothelial cells were prepared according in a previous report^34. The hiPSCs were maintained in mTeSR 1 medium ([…] Technologies, Vancouver, Canada) on VTN-N coated plates (Thermo, Wilmington, DE, USA). First, for the stepwise induction of differentiation, we performed a mesoderm induction of hiPSCs seeded in mesoderm induction medium for 48 hours (basal medium with […], […], and 2 ng/ml of Activin A; basal medium was composed of 12 g/L of DMEM/F-12, 3.56 g/L of HEPES, 1.742 g/L of sodium bicarbonate, 14 μg/L of sodium selenite, 10.7 mg/L of recombinant transferrin, 19.4 mg/L of recombinant insulin, and 64 mg/L of L-Ascorbic acid 2-phosphate sesquimagnesium salt hydrate). Second, for the mesoderm to endothelium transition, mesoderm cells were reseeded in vasculogenic medium (basal medium with 2 mg/ml of PVA plus 20 ng/ml of hVEGF-A) for an additional 72 hours. All differentiated cells were plated on VTN pre-coated culture plate dishes. The endothelial cells were analyzed on day 5 by flow cytometry staining with the CD31 (PECAM1, ThermoFisher Scientific, Wilmington, DE, USA) and CD144 (CDH5, ThermoFisher Scientific) antibodies.

A further data set relates to hPSCs. The note with it: background, literature; cited from earlier work.
The test system of the next data set is hPSCs teratoma formation. Particulars: background, literature; cited from earlier work.
The test system of another data set is PERK/AT4/DDIT3 pathway. Particulars: through the PERK/AT4/DDIT3 pathway; literature; cited from earlier work.

For `C[C@@H]1O[C@@H](O[C@@H]2C=C3CC[C@@H]4[C@H](CC[C@]5(C)[C@@H](c6ccc(=O)oc6)CC[C@]45O)[C@@]3(C)CC2)[C@H](O)[C@H](O)[C@H]1O` [Proscillaridin A, proscillaridin A], in the data set with H9 hESC-MSCs, the “cytotoxicity (LDH release) in H9 hESC-MSCs” value is on record as “do not induce cytotoxicity”. In addition, the “cell death in hESCs (Alamar blue, relative cell number)” value in the data set with hESCs is given as “dose dependent manner”. The “LDH assay positive, hepatocyte endoderm cells” value in data set [1] is on record as “−/+ (10% positive cells)”. Besides, in the data set on hESCs (H9), the “cytotoxic effect (LDH release) in hESCs” value is listed as “induced cytotoxicity” and the “LDH assay positive, hESCs” value was “+++ (more than 70% positive cells)”. In addition, in the data set with hiPSCs, the “LDH assay positive, hiPSCs” value was “+++ (more than 70% positive cells)”.
Regarding `C[C@H]1O[C@@H](O[C@H]2[C@@H](O)C[C@H](O[C@H]3[C@@H](O)C[C@H](O[C@H]4CC[C@@]5(C)[C@H](CC[C@@H]6[C@@H]5CC[C@]5(C)[C@@H](C7=CC(=O)OC7)CC[C@]65O)C4)O[C@@H]3C)O[C@@H]2C)C[C@H](O)[C@@H]1O` [Digitoxin, digitoxin], in the data set on hESCs, the “cell death in hESCs (Alamar blue, relative cell number)” value is “dose dependent manner”. Also, in data set [1], the “LDH assay positive, hepatocyte endoderm cells” value is recorded as “−/+ (10% positive cells)”. Further, in the data set with hESCs (H9), the “LDH assay positive, hESCs” value was “+++ (more than 70% positive cells)”. The “LDH assay positive, hiPSCs” value with hiPSCs is “+++ (more than 70% positive cells)”.
With `O=c1c(O)c(-c2ccc(O)c(O)c2)oc2cc(O)cc(O)c12` [quercetin], in the data set with hPSCs, the selective cell death entry is on record as “induced selective cell death”. Further, the “teratoma formation in hPSCs” value in the data set on hPSCs teratoma formation is “efficiently inhibited teratoma formation”.
Turning to `C[C@]12CC[C@H](O)C[C@H]1CC[C@@H]1[C@@H]2CC[C@]2(C)[C@@H](c3ccc(=O)oc3)CC[C@]12O` [Bufalin, bufalin], the “cytotoxicity (LDH release) in H9 hESC-MSCs” value in the data set with H9 hESC-MSCs is “do not induce cytotoxicity”. The “LDH assay positive, hepatocyte endoderm cells” value in data set [1] was “−/+ (10% positive cells)”. In the data set with hESCs (H9), the “cytotoxic effect (LDH release) in hESCs” value is recorded as “induced cytotoxicity” and the “LDH assay positive, hESCs” value is “+++ (more than 70% positive cells)”. Also, the “LDH assay positive, hiPSCs” value in the data set on hiPSCs is “+++ (more than 70% positive cells)”.
Turning to `C[C@@H]1O[C@@H](O[C@H]2C[C@@H](O)[C@]3(CO)[C@H]4[C@H](O)C[C@]5(C)[C@@H](C6=CC(=O)OC6)CC[C@]5(O)[C@@H]4CC[C@]3(O)C2)[C@H](O)[C@H](O)[C@H]1O` [Ouabain, ouabain], the “cell death in hESCs (Alamar blue, relative cell number)” value in the data set with hESCs is listed as “dose dependent manner”. Moreover, in data set [1], the “LDH assay positive, hepatocyte endoderm cells” value was “−/+ (10% positive cells)”. Moreover, the “LDH assay positive, hESCs” value in the data set with hESCs (H9) is on record as “+++ (more than 70% positive cells)”. Also, the “LDH assay positive, hiPSCs” value with hiPSCs was “+++ (more than 70% positive cells)”.
On to `O=C(NNc1ccccc1)c1ccncc1` [PluriSin #1], for which, in the data set on hPSCs teratoma formation, the “teratoma formation in hPSCs” value is recorded as “prevented teratoma formation”.
In the case of `COCCn1c2c([n+](Cc3cnccn3)c1C)C(=O)c1ccccc1C2=O` [YM155], the selective cell death entry in the data set on hPSCs was “induced selective cell death”. The “teratoma formation in hPSCs” value in the data set on hPSCs teratoma formation is “efficiently inhibited teratoma formation”.
For `CCCCCCCCC(=O)NCc1ccccc1` [JC011], the ER stress result in the data set on PERK/AT4/DDIT3 pathway was “induced ER stress”.
For the molecule `C[C@]12CC[C@H](O)C[C@H]1CC[C@@H]1[C@@H]2CC[C@]2(C)[C@@H](C3=CC(=O)OC3)CC[C@]12O` [Digitoxigenin, digitoxigenin], the “cell death in hESCs (Alamar blue, relative cell number)” value in the data set with hESCs is listed as “dose dependent manner”. For the same molecule, in data set [1], the “LDH assay positive, hepatocyte endoderm cells” value is on record as “−/+ (10% positive cells)”. Also, the “LDH assay positive, hESCs” value in the data set on hESCs (H9) was “+++ (more than 70% positive cells)”. Moreover, in the data set with hiPSCs, the “LDH assay positive, hiPSCs” value was “+++ (more than 70% positive cells)”.
